Test: Terbinafine serum concentration after topical administration (LC-MSMS)
Assay type: in vivo, human
Conditions: topical terbinafine formulation, 6.0 mg dose; day 1 and week 12; all individuals, each time point, steady state and all trough levels
Experimental: Blood samples (2.7 ml) for the determination of terbinafine concentrations in serum were taken before the first application (0 hour) and 0.5, 1, 2, 4, 8, and 12 hours after administration of a 6.0 mg dose of topical terbinafine. The sample 12 hours following the first administration was taken before the second daily administration of the topical terbinafine formulation.
Serum samples for terbinafine were analyzed by LC-MSMS. The internal standard used was naftifine. Samples were prepared by adding 50 μL serum to 50 μL methanol and 300 μL of internal standard solution (50 μg/L naftifine in 9:1 acetonitrile/methanol solution). The solution was allowed to stand for 5 minutes, and then subjected to centrifugation. After centrifugation, 50 μL of the supernatant was added to 450 μL of the mobile phase solution.
The serum concentrations were measured at day 1 and week 12 of the study.

For CN(C/C=C/C#CC(C)(C)C)Cc1cccc2ccccc12 [terbinafine], the Terbinafine serum concentration was “less than 1 ng/ml”.

Source: patent publication US7820720B2 (TDT Limited, priority 2008, dated 2010)
